Test results published in patent US8974834B2, “Method for producing reservoir layer for hoof treatment and reservoir layer” (Ecolab USA Inc., priority 2010, dated 2015).

What was measured:
[1] = Formation of a precipitate on mixing a surfactant with aqueous polyaluminium chloride/glutaraldehyde solution; assay type: physicochemical; conditions: mixed with aqueous solution (a) containing polyaluminium chloride and 7% glutaraldehyde
Protocol: (§1) 50 ml of an aqueous solution (a) containing approximately 31.5 weight % polyaluminium chloride (dialuminum chloride pentahydroxide), 7% glutaraldehyde was mixed with 10 g Texapon®NSO (C12-C14 alkyl ether sulfate with 2 mole EO). Before mixing the aluminium content of the aqueous solution (a) was about 9.5 weight %. […] The white precipitate was analyzed with respect to its contents of glutaraldehyde, Texapon®NSO. The content of polyaluminium chloride was analyzed by the content of Al-ions by XRF.
50 ml of an aqueous solution (a) containing 10% polyaluminium chloride and 7% glutaraldehyde was mixed with 50 ml of an aqueous solution (b) containing 10 weight % dodecylbenzenesulphonic acid. Before mixing the aluminium content of the aqueous solution (a) was about 3 weight %.
50 ml of an aqueous solution (a) containing 10% polyaluminium chloride, 7% glutaraldehyde was mixed with 50 ml of an aqueous solution (b) containing 10 weight % N-alkyl(C12-C16)-N-benzyl-N,N-dimethylammonium chloride (Barquat®DM-50).

[2] = Chemical analysis of the precipitate (contents of glutaraldehyde and Texapon NSO; Al by XRF); assay type: physicochemical; conditions: white precipitate from 50 ml solution (a) (31.5 weight % polyaluminium chloride, 7% glutaraldehyde) mixed with 10 g Texapon NSO
Protocol: as §1

Structure (SMILES) | formation of a precipitate upon mixing [1] | quantified values (content in the precipitate) [2] [%]
CCCCCCCCCCCCc1ccc(S(=O)(=O)O)cc1 [dodecylbenzenesulphonic acid] | white solid immediately was formed | 
O=CCCCC=O [glutaraldehyde] |  | 3.7
